# Literature values as cited in patent publication US20230068267A1, “PLANT EXTRACT COMPOSITION FOR THE TREATMENT OF CARDIOVASCULAR AND METABOLIC DISEASES” (Meda Pharma S.p.A., priority 2020, published 2023).
# Columns and labels:
# HMG-CoA reductase = molecular target: T1, HMG-CoA reductase (Homo sapiens, UniProt P04035); conditions: statin-like properties; Di Donna 2009
# T1 sequence (P04035 1-888): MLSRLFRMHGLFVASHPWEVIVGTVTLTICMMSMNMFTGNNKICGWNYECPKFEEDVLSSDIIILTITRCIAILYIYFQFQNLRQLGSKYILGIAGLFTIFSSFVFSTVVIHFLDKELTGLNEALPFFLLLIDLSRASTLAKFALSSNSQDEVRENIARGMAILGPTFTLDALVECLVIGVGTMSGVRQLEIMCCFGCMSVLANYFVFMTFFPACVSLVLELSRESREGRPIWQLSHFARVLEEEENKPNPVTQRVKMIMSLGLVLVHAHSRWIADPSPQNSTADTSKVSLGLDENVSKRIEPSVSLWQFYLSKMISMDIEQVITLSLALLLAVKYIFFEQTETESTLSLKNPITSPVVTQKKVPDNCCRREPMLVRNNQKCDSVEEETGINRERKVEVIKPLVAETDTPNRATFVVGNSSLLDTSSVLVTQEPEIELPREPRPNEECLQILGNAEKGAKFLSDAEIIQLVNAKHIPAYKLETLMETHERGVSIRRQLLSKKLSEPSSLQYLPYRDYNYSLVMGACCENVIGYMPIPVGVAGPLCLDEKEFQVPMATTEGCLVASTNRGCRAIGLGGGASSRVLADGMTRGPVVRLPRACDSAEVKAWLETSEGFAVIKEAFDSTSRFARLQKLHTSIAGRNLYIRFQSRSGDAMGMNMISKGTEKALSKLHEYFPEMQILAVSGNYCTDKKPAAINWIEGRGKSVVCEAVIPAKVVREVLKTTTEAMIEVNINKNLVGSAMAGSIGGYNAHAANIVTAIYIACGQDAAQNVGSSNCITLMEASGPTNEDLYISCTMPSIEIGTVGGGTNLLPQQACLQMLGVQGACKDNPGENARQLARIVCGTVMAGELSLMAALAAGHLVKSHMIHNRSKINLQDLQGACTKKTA
# LDL cholesterol = conditions: Yu et. al. 2005
molecule,measurement,setting,value
C[C@@H]1O[C@@H](O[C@@H]2[C@@H](Oc3cc(O)c4c(c3)O[C@H](c3ccc(O)cc3)CC4=O)O[C@@H](COC(=O)C[C@@](C)(O)CC(=O)O)[C@H](O)[C@H]2O)[C@@H](O)[C@H](O)[C@H]1O [Melitidin],inhibitory action upon HMG-CoA reductase,HMG-CoA reductase,inhibitory action upon HMG-CoA reductase
COc1ccc([C@@H]2CC(=O)c3c(O)cc(O[C@H]4O[C@@H](COC(=O)C[C@@](C)(O)CC(=O)O)[C@H](O)[C@@H](O)[C@@H]4O[C@@H]4O[C@@H](C)[C@H](O)[C@@H](O)[C@@H]4O)cc3O2)cc1O [brutieridin],inhibitory action upon HMG-CoA reductase,HMG-CoA reductase,inhibitory action upon HMG-CoA reductase
Rutin,inhibition of the oxidation of LDL cholesterol,LDL cholesterol,inhibit the oxidation of LDL cholesterol
